# Experimental data as given in the supplement of paper PMC10307832.
# Legend:
# Experiment in all cases: relative viability (nuclei count vs DMSO), 5 days (fraction); higher = more cells survive
# [1] = compound: CN(NC(=O)CC(=O)NN(C)C(=S)c1ccccc1)C(=S)c1ccccc1 [Elesclomol] + CC(C)C[C@H](NC(=O)[C@H](Cc1ccccc1)NC(=O)c1cnccn1)B(O)O [Bortezomib] (partner 0.002 µM)
# Method in brief: (§1)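 Relative viability divides the nuclei count in treated wells by that in vehicle wells. Lung cancer cell lines were seeded in 1536-well plates, dosed by pin tool the next day, and fixed and stained after 5 days in one step with final 0.05% Triton X-100, 1% formaldehyde and 1 ug/ml Hoechst. Dosing was a single drug or a fixed anchor-drug dose plus five library-drug doses (not always all listed) in √10 steps, and values are medians of duplicate plates imaged at 4×.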
# [2] = compound: CN(NC(=O)CC(=O)NN(C)C(=S)c1ccccc1)C(=S)c1ccccc1 [Elesclomol] + CC1(C)CCC(c2ccc(Cl)cc2)=C(CN2CCN(c3ccc(C(=O)NS(=O)(=O)c4ccc(N[C@H](CCN5CCOCC5)CSc5ccccc5)c(S(=O)(=O)C(F)(F)F)c4)cc3)CC2)C1 [Navitoclax] (partner 0.5 µM)
# Method in brief: as §1
# [3] = compound: CN(NC(=O)CC(=O)NN(C)C(=S)c1ccccc1)C(=S)c1ccccc1 [Elesclomol] + COc1cccc2cc(-c3nc([C@H]4CC[C@H](C(=O)O)CC4)n4ncnc(N)c34)[nH]c12 [OSI-027] (partner 0.5 µM)
# Method in brief: as §1
# [4] = compound: CN(NC(=O)CC(=O)NN(C)C(=S)c1ccccc1)C(=S)c1ccccc1 [Elesclomol] + CS(=O)(=O)CCNCc1ccc(-c2ccc3ncnc(Nc4ccc(OCc5cccc(F)c5)c(Cl)c4)c3c2)o1 [Lapatinib] (partner 2 µM)
# Method in brief: as §1
# [5] = compound: CN(NC(=O)CC(=O)NN(C)C(=S)c1ccccc1)C(=S)c1ccccc1 [Elesclomol] + CS(=O)(=O)N1CCN(Cc2cc3nc(-c4cccc5[nH]ncc45)nc(N4CCOCC4)c3s2)CC1 [Pictilisib] (partner 1 µM)
# Method in brief: as §1
Cell Line,relative viability ([1]; first compound 0.003162 µM),relative viability ([1]; first compound 0.03162 µM),relative viability ([1]; first compound 0.1 µM),relative viability ([2]; first compound 0.003162 µM),relative viability ([2]; first compound 0.03162 µM),relative viability ([2]; first compound 0.1 µM),relative viability ([3]; first compound 0.003162 µM),relative viability ([3]; first compound 0.03162 µM),relative viability ([3]; first compound 0.1 µM),relative viability ([4]; first compound 0.003162 µM),relative viability ([4]; first compound 0.03162 µM),relative viability ([4]; first compound 0.1 µM),relative viability ([5]; first compound 0.003162 µM),relative viability ([5]; first compound 0.03162 µM),relative viability ([5]; first compound 0.1 µM),relative viability ([1]; first compound 0.01 µM),relative viability ([2]; first compound 0.01 µM),relative viability ([3]; first compound 0.01 µM),relative viability ([4]; first compound 0.01 µM),relative viability ([5]; first compound 0.01 µM)
NCI-H1915,0.857,1.01,0.526,0.784,0.792,0.799,0.616,0.587,0.357,0.986,0.948,0.78,0.924,0.916,0.821,–,–,–,–,–
PC-14,0.862,0.0404,0.0297,0.977,0.0635,0.0562,0.19,0.0104,0.0138,0.337,0.228,0.0843,0.417,0.05,0.0156,0.244,0.719,0.0399,0.295,0.0984
SK-LU-1,1.45,0.38,0.116,1.08,0.167,0.172,0.319,0.211,0.0858,0.908,0.333,0.105,0.55,0.319,0.178,0.424,0.704,0.271,0.518,0.469
NCI-H1437,0.388,0.268,0.264,1.02,0.474,0.455,0.71,0.406,0.363,0.637,0.346,0.265,0.391,0.198,0.137,0.32,0.67,0.568,0.45,0.321
NCI-H1734,0.957,0.405,0.12,0.852,0.636,0.0859,0.573,0.178,0.124,1.11,0.294,0.125,0.511,0.248,0.117,0.738,0.841,0.491,0.893,0.328
HCC-15,0.998,0.662,0.42,0.73,0.439,0.373,0.727,0.276,0.0961,0.869,0.574,0.284,0.719,0.523,0.289,0.905,0.656,0.412,0.684,0.522
HCC-366,1.09,0.688,0.0134,1.06,1.02,0.137,1.05,0.823,0.0338,1.07,0.563,0.015,0.135,0.211,0.0502,1.04,1.07,0.139,1.06,0.123
NCI-H2347,0.929,0.891,0.544,0.809,0.905,0.299,0.389,0.173,0.211,0.876,0.902,0.761,0.543,0.629,0.396,0.765,0.668,0.389,0.776,0.689
LXF-289,0.997,0.968,0.673,0.851,0.875,0.575,0.82,0.803,0.589,0.925,0.876,0.677,0.781,0.749,0.501,0.998,0.924,0.328,0.881,0.709
BEN,0.698,0.265,0.25,0.049,0.0364,0.0268,0.301,0.27,0.252,0.577,0.247,0.197,0.549,0.3,0.188,0.57,0.0566,0.256,0.335,0.292
NCI-H2023,0.744,0.146,0.0637,0.99,0.111,0.102,0.351,0.0471,0.0389,0.384,0.0556,0.0486,0.219,0.0682,0.0514,0.374,0.455,0.128,0.266,0.148
NCI-H1355,1.15,0.828,0.24,1.03,0.469,0.14,0.448,0.27,0.186,1.05,0.657,0.222,0.549,0.257,0.178,1.08,0.705,0.266,0.786,0.191
COR-L 105,0.751,0.347,0.214,0.682,0.421,0.236,0.667,0.27,0.143,0.341,0.283,0.246,0.398,0.249,0.219,0.577,0.427,0.365,0.291,0.284
NCI-H2228,0.926,0.422,0.0364,0.739,0.325,0.0519,0.568,0.188,0.0467,0.953,0.33,0.103,0.395,0.132,0.0486,0.893,0.586,0.27,0.66,0.352
NCI-H838,0.825,0.621,0.609,1.15,0.962,0.739,0.331,0.378,0.286,0.984,0.683,0.555,0.465,0.439,0.357,0.581,1.06,0.407,0.838,0.413
EMC-BAC-2,1.08,0.866,0.637,1.2,1.06,0.604,0.408,0.352,0.176,0.841,0.757,0.541,0.606,0.48,0.316,0.948,1.06,0.225,0.797,0.374

Cell Line,relative viability ([1]; first compound 0.003162 µM),relative viability ([1]; first compound 0.03162 µM),relative viability ([1]; first compound 0.1 µM),relative viability ([2]; first compound 0.003162 µM),relative viability ([2]; first compound 0.03162 µM),relative viability ([2]; first compound 0.1 µM),relative viability ([3]; first compound 0.003162 µM),relative viability ([3]; first compound 0.03162 µM),relative viability ([3]; first compound 0.1 µM),relative viability ([4]; first compound 0.003162 µM),relative viability ([4]; first compound 0.03162 µM),relative viability ([4]; first compound 0.1 µM),relative viability ([5]; first compound 0.003162 µM),relative viability ([5]; first compound 0.03162 µM),relative viability ([5]; first compound 0.1 µM),relative viability ([1]; first compound 0.01 µM),relative viability ([2]; first compound 0.01 µM),relative viability ([3]; first compound 0.01 µM),relative viability ([4]; first compound 0.01 µM),relative viability ([5]; first compound 0.01 µM)
LU99A,1.21,1.18,0.121,0.79,0.881,0.132,0.309,0.295,0.223,1.02,0.921,0.135,0.316,0.325,0.137,–,–,0.259,–,–
PC-3 [JPC-3],0.82,0.764,0.755,0.866,0.794,0.7,0.734,0.781,0.428,0.43,0.519,0.405,0.738,0.878,0.581,0.73,0.682,0.662,0.386,0.604
NCI-H596,1,0.95,0.156,0.912,0.877,0.189,0.8,0.757,0.206,1.04,1.03,0.381,0.374,0.346,0.218,1.04,0.941,0.694,1.11,0.341
LCLC-97TM1,0.493,0.0851,0.0274,0.368,0.253,0.115,0.549,0.49,0.15,0.575,0.687,0.0906,0.173,0.115,0.0666,0.0794,0.298,0.164,0.299,0.118
NCI-H1993,1.07,0.49,0.493,0.934,0.63,0.508,0.552,0.616,0.513,0.753,0.697,0.563,0.798,0.807,0.603,1.05,1.19,0.498,0.809,0.909
HARA,1.1,1.01,0.332,1.16,0.884,0.267,0.524,0.31,0.0896,0.679,0.756,0.186,0.548,0.363,0.081,1.1,1.17,0.211,0.715,0.325
NCI-H460,0.911,0.0099,0.0073,0.997,0.0164,0.0095,0.619,0.101,0.0137,0.755,0.0103,0.0101,0.361,0.309,0.259,0.292,0.379,0.276,0.229,0.291
NCI-H1650,0.229,0.165,0.16,0.734,0.168,0.0893,0.221,0.151,0.132,0.38,0.184,0.17,0.185,0.18,0.15,0.206,0.331,0.201,0.277,0.177
EKVX,0.997,0.312,0.208,0.875,0.289,0.205,0.767,0.329,0.185,0.204,0.16,0.141,0.386,0.176,0.157,0.633,0.658,0.457,0.204,0.249
NCI-H1755,1.06,0.951,0.304,0.968,0.82,0.158,0.756,0.66,0.419,1.05,0.887,0.236,0.481,0.409,0.202,0.831,0.847,0.457,0.939,0.225
NCI-H1792,0.894,0.968,0.986,0.608,0.504,0.628,0.724,0.67,0.61,0.867,0.807,0.932,0.262,0.3,0.357,0.85,0.566,0.547,0.841,0.171
NCI-H2087,0.896,0.502,0.495,0.924,0.499,0.469,0.422,0.357,0.225,0.895,0.58,0.569,0.879,0.491,0.495,0.49,0.728,0.283,0.519,0.559
H3255,0.792,0.418,0.289,0.629,0.171,0.128,0.538,0.489,0.421,0.246,0.207,0.232,0.433,0.315,0.266,0.465,0.457,0.537,0.265,0.336
NCI-H23,1.07,0.603,0.119,0.799,0.761,0.144,0.66,0.601,0.312,1.12,0.799,0.139,0.536,0.366,0.147,–,–,0.298,–,–
HCC-827,1.03,0.947,0.999,1.02,1,0.756,0.741,0.722,0.532,0.178,0.194,0.188,1.03,1.04,0.811,0.998,0.995,0.758,0.206,0.988
HCC-78,0.487,0.447,0.494,0.778,0.793,0.627,0.356,0.364,0.322,0.704,0.932,0.798,0.252,0.229,0.217,0.419,0.755,0.399,0.65,0.2
